Source: patent publication US20110130346A1, “PEPTIDE CONJUGATES FOR DELVERY OF BIOLOGICALLY ACTIVE COMPOUNDS” (ISIS INNOVATION LIMITED, priority 2008, published 2011)

Experiments:
[1] = system: exon and intron 23 of the dystrophin gene; assay: Example 3: intramuscular glucose-formulated AOs, Western blot of dystrophin; format: in vivo, mdx mice
Protocol: (§1) For intramuscular studies the TA muscle of each experimental mdx mouse was injected with a 40 μl dose of PNA and PNA-peptide conjugates with saline at a final concentration of 125 μg/ml, and the contralateral muscle was injected with saline. For systemic intravenous injections, X μg PNA or PNA-peptide conjugates in 80 μl saline buffer were injected into tail vein of mdx mice at the final dose of 25 mg/kg and 6 mg/kg, respectively. The animals were killed at various time points after injection by CO2 inhalation and tissues were removed and snap-frozen in liquid nitrogen-cooled isopentane and stored at −80° C.
The collected sections were placed in a 1.5 ml polypropylene eppendorf tube (Anachem, UK) on dry ice. […] The supernatant was collected and the protein concentration was quantified by Bradford assay (Sigma, UK). […] The bound primary antibody was detected by horseradish peroxidise-conjugated rabbit anti-mouse IgGs and the ECL Western Blotting Analysis system (Amersham Pharmacia Biosciences, UK). The intensity of the bands obtained from treated mdx muscles was measured by Image J software; the quantification is based on band intensity and area, and is compared with that from normal muscles of C57BL6 mice.

[2] = system: exon and intron 23 of the dystrophin gene; assay: Example 3: intramuscular injection of glucose-formulated AOs, dystrophin-positive myofibres by immunohistochemistry; format: in vivo; conditions: intramuscular into TA, 8 week old mdx mice, two weeks
Protocol: Here we study a novel delivery glucose formulation by evaluating it via local intramuscular injection into the mdx mouse tibialis anterior (TA) muscle. Initial experiments were performed in 6-8 week old mdx mice (referred to as 8 weeks) by treatment with a single dose of 5 ug of 2′OMePS AO formulated in 5% glucose. In a parallel control study, age-matched control mdx mice were treated with the same AO dose formulated in standard saline buffer.
For intramuscular studies the TA muscle of each experimental mdx mouse was injected with a 40 μl dose of PNA and PNA-peptide conjugates with saline at a final concentration of 125 μg/ml, and the contralateral muscle was injected with saline. […]
(§2) Sections of 8 μm were cut from at least two-thirds of the muscle length of TA, quadriceps, gastrocnemius, biceps, abdominal wall and diaphragm muscles and cardiac muscle at 100 μm intervals. […] The maximum number of dystrophin-positive fibres in one section was counted using the Zeiss AxioVision fluorescence microscope. […] Polyclonal antibodies were detected by goat-anti-rabbit IgGs Alexa Fluro 594 (Molecular Probe, UK). […] Polyclonal antibodies were detected by goat-anti-rabbit IgGs Alexa 594 and the monoclonal antibodies by goat-anti-mouse IgGs Alexa 594 (Molecular Probe, UK). […]

[3] = system: exon and intron 23 of the dystrophin gene; assay: Example 3: intramuscular glucose-formulated AOs, RT-PCR of exon skipping; format: in vivo, mdx mice
Protocol: Total RNA was extracted from skeletal muscle and heart tissue with Trizol (Invitrogen, UK) and 200 ng of RNA template was used for 20 μl RT-PCR with OneStep RT-PCR kit (Qiagen, UK). The primer sequences for the initial RT-PCR were Exon20Fo 5′-[…]-3′ and Ex26Ro 5′-[…]-3′ for amplification of messenger RNA from exons 20 to 26. The cycle conditions were 95° C. for 30 seconds, 55° C. for 1 minute and 72° C. for 2 minutes for 25 cycles. RT-PCR product (1 μl) was then used as the template for secondary PCR performed in 25 μl with 0.5 U Taq DNA polymerase (Invitrogen, UK). The primer sequences for the second round were Ex20Fi 5′-[…]-3′ and Ex24Ri 5′-[…]-3. The cycle conditions were 95° C. for 1 minute, 57° C. for 1 minute, and 72° C. for 2 min for 25 cycles. The products were examined by electrophoresis on a 2% agarose gel.
as §1, with “The animals were killed at various time points after injection by CO2 inhalation and tissues were removed and snap-frozen in liquid nitrogen-cooled isopentane and stored at −80° C.” left out

[4] = system: exon and intron 23 of the dystrophin gene; assay: Example 3: intravenous glucose-formulated AOs, dystrophin immunohistochemistry; format: in vivo, mdx mice; conditions: single intravenous dose of 25 mg/kg
Description: (§3) Given the dramatic enhancement in AO uptake and exon skipping activity and dystrophin restoration observed following intramuscular delivery of glucose-formulated AO we wished to study whether or not such enhancement could also facilitate improved systemic AO delivery and splice correcting activity. Initially we chose to study whether or not systemic PMO AO delivery was enhanced following glucose formulation. We compared PMO formulated in saline with PMO formulated in either 5% glucose or formulated in glucose at a final concentration of 4.5% and delivered these via a single intravenous dose of 25 mg/kg in mdx mice.
We further studied the intravenous enhancing effects by investigating the effects on a peptide conjugated PMO compound using a well characterised arginine-rich peptide (RXR)4. […]
as §2

[5] = system: exon and intron 23 of the dystrophin gene; assay: Example 3: intravenous glucose-formulated AOs, RT-PCR of splice correction; format: in vivo, mdx mice; conditions: single intravenous dose of 25 mg/kg, various muscle groups
Description: as §3
We further studied the intravenous enhancing effects by investigating the effects on a peptide conjugated PMO compound using a well characterised arginine-rich peptide (RXR)4.
Total RNA was extracted from skeletal muscle and heart tissue with Trizol (Invitrogen, UK) and 200 ng of RNA template was used for 20 μl RT-PCR with OneStep RT-PCR kit (Qiagen, UK). The primer sequences for the initial RT-PCR were Exon20Fo 5′-[…]-3′ and Ex26Ro 5′-[…]-3′ for amplification of messenger RNA from exons 20 to 26. The cycle conditions were 95° C. for 30 seconds, 55° C. for 1 minute and 72° C. for 2 minutes for 25 cycles. RT-PCR product (1 μl) was then used as the template for secondary PCR performed in 25 μl with 0.5 U Taq DNA polymerase (Invitrogen, UK). […]

## 5′-GGCCAAACCTCGGCTTACCTGAAAT-3′ (morpholino backbone, further chemistry not given here) [PMO, neutrally charged PMO AO, M23D, 25 mer]
[1]
  dystrophin protein expression on Western blot, glucose versus saline formulation: increased dystrophin protein expression
[2]
  dystrophin-positive myofibres, 5% glucose formulation compared with saline formulation: no significant difference
[3]
  exon skipping activity at the RNA level, glucose versus saline formulation: enhanced exon skipping activity
[4]
  corrected dystrophin-positive fibres, glucose (5% or 4.5%) versus saline formulation: significant enhancements
[5]
  dystrophin splice correction at the RNA level, glucose versus saline formulation: enhanced dystrophin splice correction
